Read-outs that look alike come from different tables or passages of the source. Peptide text beside a SMILES is read from it.
Columns and labels:
CHO-K1 = assay: Cell growth test of each peptide on coating agent for 3 days; type: cell-based; set-up: Viability, 1 / Viability, 2 / Viability, 3 / Viability, Average: unit not given here; conditions: 2.1 mM Gly-Glu-Lys, poly-L-lysine coating; for Cells cell count, Average / Viability, Average: average n=3, 2.2 mM Asp-Gly-Pro; for Cells cell count, 1 / Viability, 1: replicate 1, 2.2 mM Asp-Gly-Pro; for Cells cell count, 2 / Viability, 2: replicate 2, 2.2 mM Asp-Gly-Pro; for Cells cell count, 3 / Viability, 3: replicate 3, 2.2 mM Asp-Gly-Pro
Description: Peptides having the sequences of Gly-Glu-Lys (GEK) and Asp-Gly-Pro (DGP) were synthesized to prepare each peptide solution such that the concentration was a concentration at which the cell number increased the most within a range of 0 mM to 5 mM. In other words, Gly-Glu-Lys (GEK) was adjusted to 21 mM, and Asp-Gly-Pro (DGP) was adjusted to 22 mM, and an amount of 1/10 of the total culture medium volume was added to each well immediately before the cell culture test such that final concentrations were 2.1 mM and 2.2 mM, respectively.
Poly-L-lysine (Peptide Institute, Inc., Poly-L-Lysine Hydrochloride, code: 3075) was prepared to 0.1 mg/mL, and 200 μL was dispensed into each well of a 24-well plate, which was left to stand in an incubator at 37° C. for 2 hours. After removing the residual liquid with an aspirator, rinsing was performed with distilled water, irradiation was performed with a UV lamp in a clean bench without a lid, and drying was performed overnight to sterilize. A cell suspension prepared such that CHO-K1 (RIKEN BioResource Research Center, cell number: RCB2330) was at 4×10^4 cells/mL was seeded in a 24-well plate at 500 μL/well and cultured in an incubator at 37° C. and 5% CO2 for 24 hours. As a culture medium, an MEMα culture medium (Gibco) containing 10% FBS was used.
After removing the culture medium from each well and washing with the MEMα culture medium (500 μL), 450 μL of a new MEMα culture medium was dispensed into each well, and each peptide solution (50 μL) was added (total 500 μL/well) to perform culture for 3 days. The cells were recovered to count the cell number. A similar culture test was performed using a system containing neither peptide nor FBS as a comparative sample.
The culture medium in each well was recovered in a 1.5 mL tube to be rinsed with 200 μL of MEMα, and the rinsed liquid was also recovered in the same 1.5 mL tube. Thereafter, 100 μL of trypsin was added and incubated for 3 minutes. After rinsing with 300 μL of MEMα containing 10% FBS, the rinsed liquid was also recovered in the same 1.5 mL tube. After rinsing again with 200 μL of MEMa containing 10% FBS, the rinsed liquid was also recovered in the same 1.5 mL tube.
A centrifugation operation was performed on the cells recovered in the 1.5 mL tube. The centrifugation conditions were 1,000 rpm, 10 minutes, and 4° C.
The supernatant was removed, and 300 μL of Cold PBS (phosphate buffered saline) was added to perform a centrifugation operation under the same conditions. The present operation was repeated twice.
Suspension was carried out with 100 μL of Binding Buffer, and 2 μL of propidium iodide (PI) was added and stirred in the tube to cause a reaction for 15 minutes at room temperature and with light shielding. Thereafter, the viable cell count and the viability were measured with a flow cytometer.
The above preparation, culture, and measurement were performed with n=3. Table 13 and FIG. 13 show the viable cell count in each peptide solution, and Table 14 and FIG. 14 show the cell viability in each peptide solution.

[1] = test system: serum-free floating CHO DP-12; conditions: GEK 2.05 mM, DGP 1.11 mM + medium supplemented with vitamins and the like; for Amount of protein produced: ELISA
Description: 5 mL of each of a DMEM/F12 basal medium, a medium supplemented with vitamins and the like (DMEM/F12 basal medium+a component supplemented with vitamins and the like), and each peptide solution was added to each well of a 24-well (Deep well) cassette of Micro-24 Bioreactor System (manufactured by Nihon Pall Corporation) to perform culture overnight under the conditions of 37° C., pH 7, and a stirring speed of 650 rpm. On the next day, pH calibration was performed, and thereafter 2 mL of the cell suspension prepared at 3.5×10^5 cells/mL was added to each well of the 24-well (Deep well) cassette, seeded such that the cell density of the floating cells was 1×10^5 cells/mL (7 mL/well), and cultured in the following evaluation medium under culture conditions of 37° C., pH 7, a stirring speed of 650 rpm, and dissolved oxygen of 30%.
• DMEM/F12 basal medium • Medium supplemented with vitamins and the like (basal medium+component supplemented with vitamins and the like) • GEK (2.05 mM)+medium supplemented with vitamins and the like • DGP (1.11 mM)+medium supplemented with vitamins and the like
As a culture medium, a DMEM/F12 basal medium in which 200 nM of methotrexate, 10 μg/mL of insulin, 5.5 μg/mL of transferrin, 6.7 ng/mL of sodium selenite, 10 μL/mL of Anti-Clumping Agent, and 10 μL/mL of 10% Pluronic F68 were blended in a DMEM/F12 culture medium (Gibco) was used.
After the third day of culture, 200 pμL of the culture medium was recovered in a 1.5 mL tube from each well of the 24-well (Deep well) cassette. 50 μL out of this was put in another 1.5 mL tube, and after adding 50 μL of trypan blue to sufficiently suspend, the viable cell count and the viability were measured using a cell counter (Countess II, manufactured by Life Technologies Corporation).
After the third day of culture, 150 μL out of 200 μL of the culture medium recovered from each well of the 24-well (Deep well) cassette was subjected to a centrifugation operation (5,000 rpm, for 5 minutes) in a 1.5 mL tube, and the supernatant was separately recovered to measure the amount of produced protein by ELISA.

[2] = test system: serum-free floating CHO DP-12; assay: Protein production test on AGK and GPP in floating cell system; type: cell-based; conditions: AGK 3.95 mM, GPP 4.40 mM + medium supplemented with vitamins and the like, ELISA
Description: Peptides having the sequences of Ala-Gly-Lys (AGK) and Gly-Pro-Pro (GPP) were synthesized to prepare peptide solutions of 5.53 mM of Ala-Gly-Lys (AGK) and 6.16 mM of Gly-Pro-Pro (GPP).
5 mL of each of a basal medium, a medium supplemented with vitamins and the like (basal medium +a component supplemented with vitamins and the like), and each peptide solution was added to each well of a 24-well (Deep well) cassette of Micro-24 Bioreactor System (manufactured by Nihon Pall Corporation) to perform culture overnight under the conditions of 37° C., pH 7, and 650 rpm. On the next day, pH calibration was performed, and thereafter 2 mL of the cell suspension prepared at 3.5×10^5 cells/mL was added to each well of the 24-well (Deep well) cassette, seeded such that the cell density of the floating cells was 1×10^5 cells/mL (7 mL/well), and cultured in the following evaluation medium under culture conditions of 37° C., pH 7, 650 rpm, and dissolved oxygen of 30%.
• Basal medium • Medium supplemented with vitamins and the like (basal medium+component supplemented with vitamins and the like) • AGK (3.95 mM)+medium supplemented with vitamins and the like • GPP (4.40 mM)+medium supplemented with vitamins and the like
As a culture medium, a basal medium in which 200 nM of methotrexate, 10 μg/mL of insulin, 5.5 μg/mL of transferrin, 6.7 ng/mL of sodium selenite, 10 μL/mL of Anti-Clumping Agent, and 10 μL/mL of 10% Pluronic F68 were blended in a DMEM/F12 culture medium (Gibco) was used.
As the floating cells used, serum-free floating CHO DP-12 obtained by acclimating CHO DP-12 (ATCC, Cat. No. CRL-12445) to serum-free flotation and subculturing using a 100 mL volume Erlenmeyer flask and with a shaking culture device (Custom Bio Shaker CO2-BR-43FL, TAITEC CORPORATION) under the culture conditions of 37° C., 5% CO2, and a stirring speed of 125 rpm was used.
After the third day of culture, 150 μL of the culture medium was recovered in a 1.5 mL tube from each well of the 24-well (Deep well) cassette to perform a centrifugation operation (5,000 rpm, for 5 minutes), and the supernatant was recovered to measure the amount of produced protein by ELISA.

| Molecule | Cells cell count, Average (CHO-K1) | Viability, Average (CHO-K1) | Cells cell count, 1 (CHO-K1) | Viability, 1 (CHO-K1) | Cells cell count, 2 (CHO-K1) | Viability, 2 (CHO-K1) | Cells cell count, 3 (CHO-K1) | Viability, 3 (CHO-K1) | cell number ([1]; Day 0) | cell number ([1]; Day 3) | Amount of protein produced ([1]; Day 3) [mg/L] | cell number ([1]; Day 4) | Amount of protein produced ([1]; Day 4) [mg/L] | cell number ([1]; Day 5) | Amount of protein produced ([1]; Day 5) [mg/L] | cell number ([1]; Day 6) | Amount of protein produced ([1]; Day 6) [mg/L] | cell number ([1]; Day 7) | Amount of protein produced ([1]; Day 7) [mg/L] | Amount of protein produced ([2]; Day 3) [mg/L] | further results |
| --- | --- | --- | --- | --- | --- | --- | --- | --- | --- | --- | --- | --- | --- | --- | --- | --- | --- | --- | --- | --- | --- |
| Asp-Gly-Pro [DGP] | 11.99 ×10^4 | 78.5 | 11.69 ×10^4 | 77.9 | 10.47 ×10^4 | 75.6 | 13.82 ×10^4 | 82.0 | 0.10 ×10^6cells/ml | 1.15 ×10^6cells/ml | 19.86 | 2.52 ×10^6cells/ml | 43.99 | 2.58 ×10^6cells/ml | 63.65 | 3.50 ×10^6cells/ml | 82.54 | 3.01 ×10^6cells/ml | 104.75 | – | Viability ([1]; Day 0): 98.0%; Viability ([1]; Day 3): 97.50%; Viability ([1]; Day 4): 97.50%; Viability ([1]; Day 5): 94.50%; Viability ([1]; Day 6): 87.00%; Viability ([1]; Day 7): 81.50% |
| Gly-Pro-Pro [GPP] | – | – | – | – | – | – | – | – | – | – | – | – | – | – | – | – | – | – | – | 14.95 | Amount of protein produced ([2]; Day 4): 32.30 mg/L; Amount of protein produced ([2]; Day 5): 52.53 mg/L; Amount of protein produced ([2]; Day 6): 67.01 mg/L; Amount of protein produced ([2]; Day 7): 80.86 mg/L |
| NCCCC[C@H](NC(=O)[C@H](CCC(=O)O)NC(=O)CN)C(=O)O [GEK, Gly-Glu-Lys] (H-Gly-Glu-Lys-OH; N-terminus and C-terminus assumed) | 19.35 ×10^4 | 94.5 | 17.94 ×10^4 | 94.7 | 19.72 ×10^4 | 95.1 | 20.39 ×10^4 | 93.8 | 0.10 ×10^6cells/ml | 1.73 ×10^6cells/ml | 26.32 | 2.40 ×10^6cells/ml | 54.96 | 2.65 ×10^6cells/ml | 75.54 | 2.64 ×10^6cells/ml | 98.46 | 3.05 ×10^6cells/ml | 127.08 | – | – |
| C[C@H](N)C(=O)NCC(=O)N[C@@H](CCCCN)C(=O)O [AGK, Ala-Gly-Lys] (H-Ala-Gly-Lys-OH; N-terminus and C-terminus assumed) | – | – | – | – | – | – | – | – | – | – | – | – | – | – | – | – | – | – | – | 17.74 | Amount of protein produced ([2]; Day 4): 31.36 mg/L; Amount of protein produced ([2]; Day 5): 49.43 mg/L; Amount of protein produced ([2]; Day 6): 65.58 mg/L; Amount of protein produced ([2]; Day 7): 73.46 mg/L |

From patent publication US20240101599A1, “PEPTIDE, CELL GROWTH PROMOTER, PROTEIN PRODUCTION PROMOTER, CULTURE MEDIUM, CELL GROWTH METHOD USING PEPTIDE, AND PROTEIN PRODUCTION METHOD USING PEPTIDE” (Maruhachi Muramatsu, Inc., priority 2020, published 2024)
